Reference: PMC4607367, “Gedunin and Azadiradione: Human Pancreatic Alpha-Amylase Inhibiting Limonoids from Neem (Azadirachta indica) as Anti-Diabetic Agents” (PLoS ONE, 2015)
Entries after “also recorded” stand apart in the source; their conditions may differ.

Key:
[1] = biological target: HPA; design: method as in PMID 15736945; settings: ref [60], cited from earlier work
[2] = biological target: T1, Porcine pancreatic α-amylase (PPA) (Sus scrofa, UniProt P00690); experiment: Porcine pancreatic α-amylase inhibition assay, chromogenic DNSA method (primary screening); assay type: biochemical; settings: for PPA inhibition (result in words): inhibitors 13.8–214.3 μM; for IC50: starch 1% w/v, pH 6.9, 37°C
T1 construct: purchased SRL, Mumbai, India
T1 sequence (P00690 16-511): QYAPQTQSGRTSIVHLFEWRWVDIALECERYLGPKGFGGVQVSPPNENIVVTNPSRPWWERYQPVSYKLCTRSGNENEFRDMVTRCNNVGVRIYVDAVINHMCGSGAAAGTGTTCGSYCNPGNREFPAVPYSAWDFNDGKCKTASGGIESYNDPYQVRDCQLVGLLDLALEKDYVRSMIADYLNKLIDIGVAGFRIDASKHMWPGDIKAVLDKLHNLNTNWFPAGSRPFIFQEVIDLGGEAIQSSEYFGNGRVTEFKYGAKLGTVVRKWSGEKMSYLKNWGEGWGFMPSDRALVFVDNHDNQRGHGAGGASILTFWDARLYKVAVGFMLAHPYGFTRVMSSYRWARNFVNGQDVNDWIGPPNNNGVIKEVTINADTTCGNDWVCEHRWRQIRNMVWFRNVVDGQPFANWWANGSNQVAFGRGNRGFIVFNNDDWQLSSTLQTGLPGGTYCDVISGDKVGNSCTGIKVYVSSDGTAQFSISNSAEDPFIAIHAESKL
Method: The inhibition assay was performed using the chromogenic DNSA method. PPA was used for preliminary screening of α-amylase inhibitors. […] Moreover a high degree gene sequence similarity (~ 90%) exists between human salivary α-amylase (HSA) and PPA as reported by (Buisson et al 1987). Brayer et al (1995) have reported 97% primary sequence similarity between human salivary and human pancreatic α-amylases and a 70% structural similarity between PPA and HPA [11]. Thus, a high degree of similarity between PPA and HPA allows us to use it as the enzyme for screening inhibitors.
In brief, the total assay mixture consisting of 0.02 M sodium phosphate buffer, pH6.9, (containing 6 mM NaCl), 0.2–0.25 U of PPA and inhibitors (13.8–214.3 μM) in DMSO was incubated at 37°C for 10 min. After pre-incubation, the substrate starch (1%, w/v) solution was added to the reaction mixture and further incubated for 15 min. The control PPA (0.21 U) without any inhibitor represented 100% enzyme activity. One unit of enzyme activity is defined as the amount of enzyme required to release one micromole of maltose from starch/maltopentaose per min under the assay conditions. The other quantifiers calculated were: % Relative enzyme activity = (enzyme activity of test/enzyme activity of control)*100. % inhibition = (100 − % relative enzyme activity).
The IC50 values were determined from plots of percent inhibition versus inhibitor concentration and calculated by logarithmic regression analysis. To eliminate the absorbance produced by the compound, appropriate controls were included. The known PPA/HPA inhibitor acarbose was used as a positive control at a concentration range of 10–50 μM.

[3] = test system: PPA; design: method as in PMID 22975503; settings: ref [25],[26], cited from earlier work; for IC50: value in brackets
[4] = biological target: T2, secreted pancreatic α-amylase of AR42J cells (Rattus norvegicus, UniProt P00689); experiment: Bioactivity: inhibition of secreted pancreatic α-amylase in dexamethasone-induced AR42J cells, incl. starch load test (DNSA); assay type: cell-based; settings: for Amylase inhibition at the cytotoxic IC50 concentration: 24 h, at 11.1, 13.4 and 4.1 μM respectively
T2 construct: host or cells: AR42J rat pancreatic acinar cells, induced with 10 nM dexamethasone
T2 sequence (P00689 16-508): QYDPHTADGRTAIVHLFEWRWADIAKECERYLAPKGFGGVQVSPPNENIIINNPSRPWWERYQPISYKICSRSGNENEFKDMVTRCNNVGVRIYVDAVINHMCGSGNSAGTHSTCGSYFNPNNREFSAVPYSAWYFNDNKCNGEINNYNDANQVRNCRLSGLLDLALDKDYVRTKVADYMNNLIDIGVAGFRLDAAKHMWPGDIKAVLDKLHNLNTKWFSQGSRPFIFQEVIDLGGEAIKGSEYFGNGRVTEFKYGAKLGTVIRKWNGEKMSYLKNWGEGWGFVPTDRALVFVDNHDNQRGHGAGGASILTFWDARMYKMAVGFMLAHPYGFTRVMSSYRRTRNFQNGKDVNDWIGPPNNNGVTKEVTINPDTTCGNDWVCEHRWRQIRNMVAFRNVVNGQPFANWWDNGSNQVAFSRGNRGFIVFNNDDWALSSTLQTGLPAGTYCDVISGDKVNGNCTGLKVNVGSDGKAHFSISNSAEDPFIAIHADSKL
Description: Appropriate medium and DMSO controls were simultaneously set up.

[5] = test system: AR42J rat pancreatic acinar cells; experiment: Cytotoxicity in AR42J cell line (MTT); settings: AR42J
Method: (§1) Cells were seeded at 2×10^4 cells well^-1 onto 96 wells culture dish. […] Appropriate medium and DMSO controls were simultaneously set up. […] At the end of 24 h incubation period the culture media was removed from the samples and fresh culture media (100 μl) containing 20 μl of MTT tetrazolium bromide (5 mg ml^-1) added and incubated for 3 h at 37°C. Metabolically active cells reduce MTT to insoluble purple formazan dye crystals, which were dissolved by addition of 300 μl DMSO solution at the end of the incubation period and quantitated at 550 nm [34].

[6] = Cytotoxicity in AR42J cell line (MTT); settings: rat, AR42J pancreatic acinar cells
Method: as §1

[7] = biological target: T3, Human pancreatic α-amylase (HPA) (Homo sapiens, UniProt P04746); experiment: Ligand binding to HPA by fluorescence quenching titration, thermodynamic parameters
T3 construct: purchased Sigma Aldrich, USA
T3 sequence (P04746 16-511): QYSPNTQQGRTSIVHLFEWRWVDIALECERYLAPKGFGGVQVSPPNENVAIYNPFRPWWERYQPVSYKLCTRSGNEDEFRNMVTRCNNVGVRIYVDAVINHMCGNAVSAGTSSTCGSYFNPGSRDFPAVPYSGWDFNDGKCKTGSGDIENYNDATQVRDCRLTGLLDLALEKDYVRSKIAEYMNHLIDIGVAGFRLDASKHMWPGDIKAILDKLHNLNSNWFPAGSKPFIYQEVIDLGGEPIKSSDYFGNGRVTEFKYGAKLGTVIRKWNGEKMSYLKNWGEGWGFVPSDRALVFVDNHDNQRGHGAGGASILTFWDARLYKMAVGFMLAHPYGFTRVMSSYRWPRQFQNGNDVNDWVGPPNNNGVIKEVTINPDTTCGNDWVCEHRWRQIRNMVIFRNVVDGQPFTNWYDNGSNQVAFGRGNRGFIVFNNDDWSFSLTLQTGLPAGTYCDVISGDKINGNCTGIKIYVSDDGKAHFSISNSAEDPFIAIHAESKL
Method: Ligand binding studies using fluorescence measurements of HPA were carried as described in our earlier report. […] Non-linear and linear regression analyses were used to analyze the data.
The thermodynamic parameters, association constants (K a), dissociation constant (K d) and Gibbs free energy (ΔG°) of binding for azadiradione and gedunin were determined at various temperatures 25°C to 60°C by fluorescence quenching studies.

[8] = biological target: T3, Human pancreatic α-amylase (HPA); experiment: Human pancreatic α-amylase inhibition and stoichiometry (DNSA); assay type: biochemical
Description: The control HPA (0.25 U) without inhibitors represented 100% enzyme activity.

[9] = biological target: T3, Human pancreatic α-amylase (HPA); experiment: HPA inhibition kinetics (Michaelis-Menten, Lineweaver-Burk, secondary plots); assay type: biochemical
Method: The mode of inhibition of HPA by the lead inhibitors azadiradione and gedunin were determined using Michaelis-Menton and Lineweaver-Burk equations. Starch (1–5mg ml^-1) and maltopentaose (0.05–0.4mM) were incubated with inhibitors-HPA for 10 and 2.5 min, respectively and the residual enzyme activity determined by DNSA method for starch and Nelson-Somogyi’s method for maltopentaose.The inhibitor constants(K i) were determined on the basis of mode of inhibition.

[10] = linear van't Hoff plot, 298–333 K

C[C@H]1O[C@H](O[C@H]2[C@H](O)[C@@H](O)[C@@H](O[C@H]3[C@H](O)[C@@H](O)C(O)O[C@@H]3CO)O[C@@H]2CO)[C@H](O)[C@@H](O)[C@@H]1N[C@H]1C=C(CO)[C@@H](O)[C@H](O)[C@H]1O (some centres unmarked) [Acarbose, acarbose]
Ki ([1]; 2-chloro-4-nitrophenyl-α-maltotrioside as substrate): 22 µM | Mode of HPA inhibition [1]: noncompetitive

C/C=C(\C)C(=O)O[C@H]1C[C@@H](OC(C)=O)[C@@]2(C(=O)OC)CO[C@H]3[C@@H](O)[C@@](C)([C@]45O[C@@]4(C)[C@@H]4C[C@H]5O[C@@H]5OC=C[C@@]54O)[C@H]4[C@]1(CO[C@]4(O)C(=O)OC)[C@@H]32 [azadirachtin A]
PPA inhibition (result in words) [2]: No inhibition; also recorded: no bioactivity

CC=C(C)C(=O)OC1CC(O)C23COC(C(=O)OC)C2C(C)(C24OC2(C)C2CC4OC4OC=CC42O)C(O)C2OCC1(C(=O)OC)C23 (centres unmarked) [azadirachtin B]
PPA inhibition (result in words) [2]: No inhibition; also recorded: no bioactivity

CC(=O)O[C@@H]1C[C@H](OC(=O)C=C(C)C)[C@@]2(C)[C@H]3[C@@H](OC[C@]13C)[C@@H](O)[C@@]1(C)C3=CC[C@@H]([C@@H]4COC(=O)C4)[C@]3(C)CC[C@@H]12 [azadirachtolide]
IC50 with PPA [3]: 55.8 µg/mL | IC50 [3]: 94.1 µM

CC(=O)O[C@@H]1C[C@H]2C(C)(C)C(=O)C=C[C@]2(C)[C@H]2CC[C@]3(C)C(=CC[C@H]3c3ccoc3)[C@@]21C [azadirone]
PPA inhibition (result in words) [2]: No inhibition; also recorded: no activity was observed

CC(=O)O[C@@H]1C[C@H]2C(C)(C)C(=O)C=C[C@]2(C)[C@H]2CC[C@@]3(C)[C@H](c4ccoc4)C(=O)[C@H]4O[C@]43[C@@]21C [epoxyazadiradione]
IC50 [2]: 100 µM | Amylase inhibition at the cytotoxic IC50 concentration ([4]; AR42J): 53.2% | inhibition at 1.7 µM ([4]; AR-42J, read-out: Pancreatic (secreted) α-amylase inhibition): 31.8% | Cell death ([5]; 1.7 μM): 2.7% | IC50 at 24 h [6]: 4.1 µM

CC(=O)O[C@@H]1C[C@H]2C(C)(C)C(=O)C=C[C@]2(C)[C@H]2CC[C@@]3(C)[C@H](c4ccoc4)OC(=O)[C@H]4O[C@]43[C@@]21C [gedunin]
-ΔG° ([7]; 298 K): 21.16 k J mol^-1 | K a ([7]; 298 K): 5100 M⁻¹ | Kd ([7]; 298 K): 200 ± 9 µM | -ΔG° ([7]; 303 K): 20.57 k J mol^-1 | K a ([7]; 303 K): 3500 M⁻¹ | Kd ([7]; 303 K): 300 ± 3 µM | -ΔG° ([7]; 308 K): 16.4 k J mol^-1 | K a ([7]; 308 K): 600 M⁻¹ | Kd ([7]; 308 K): 1600 ± 1 µM | -ΔG° ([7]; 313 K): 12.4 k J mol^-1 | K a ([7]; 313 K): 120 M⁻¹ | Kd ([7]; 313 K): 8300 ± 50 µM | -ΔG° ([7]; 323K): 11.8 k J mol^-1 | K a ([7]; 323K): 80 M⁻¹ | Kd ([7]; 323K): 12200 ± 600 µM | -ΔG° ([7]; 333K): 7.4 k J mol^-1 | K a ([7]; 333K): 10 M⁻¹ | Kd ([7]; 333K): 67200 ± 800 µM | Maximal quenching of intrinsic HPA fluorescence ([7]; 350 nm, azadiradione 3.9–118 μM, gedunin 2.0–51.86 μM): 19% | Maximum ΔG° of binding ([7]; calculated from binding constants, maximal affinity at 298 K): -5.057 kcal/mol | Enthalpy (ΔHvH) [7, 10]: -33.44 kcal/mol | Entropy (-ΔS) [7, 10]: 397.84 J mol^-1K^-1 | Stoichiometry of HPA inactivation ([8]; percentage inhibition versus molar ratio of HPA and inhibitor, HPA 14.85 μM): 0.68 | IC50 ([8]; starch substrate, sigmoidal fit): 68.4 µM | Ki ([9]; maltopentaose as substrate, secondary plots): 18.6 µM | Apparent K i ′ ([9]; starch as substrate, secondary plots): 37.4 µM | Mode of HPA inhibition ([9]; substrates starch and maltopentaose, Lineweaver-Burk): mixed | IC50 [2]: 72.2 µM | Secreted amylase inhibition in starch load test ([4]; AR42J, 0.5% (w/v) starch, up to two hours): 31.7% | Amylase inhibition at the cytotoxic IC50 concentration ([4]; AR42J): 69.2% | inhibition at 3.3 µM ([4]; AR-42J, AR42J, 3.3 μM): 53.4% | Cell death ([5]; 3.3 μM): 8.6% | Cell morphology versus controls ([5]; azadiradione 3.5 μM, gedunin 3.3 μM (Fig 3)): no morphological change | IC50 at 24 h [6]: 13.4 µM

CC(C)=CC(=O)O[C@H]1C[C@@H](O)[C@@]2(C)CO[C@H]3[C@@H](O)[C@@]4(C)C5=CC[C@@H](c6ccoc6)[C@]5(C)CC[C@@H]4[C@]1(C)[C@@H]32 [meliacinolin]
IC50 with PPA [3]: 46.74 µg/mL | IC50 [3]: 91.6 µM

COC(=O)C[C@H]1[C@]2(C)C3=C(C)[C@H](c4ccoc4)C[C@H]3O[C@@H]2[C@H](OC(C)=O)[C@@H]2[C@]1(C)C(=O)C=C[C@@]2(C)C(=O)OC [nimbin]
PPA inhibition (result in words) [2]: No inhibition; also recorded: no bioactivity

C/C=C(/C)C(=O)O[C@H]1C[C@@H](OC(C)=O)[C@@]2(C)CO[C@H]3[C@H]4O[C@@H]5C[C@@H](c6ccoc6)C(C)=C5[C@@]4(C)[C@H](CC(=O)OC)[C@]1(C)[C@@H]32 [salannin]
PPA inhibition (result in words) [2]: No inhibition; also recorded: no bioactivity
